Data as given in article PMC5581131, “The novel sphingosine-1-phosphate receptors antagonist AD2900 affects lymphocyte activation and inhibits T-cell entry into the lymph nodes” (Oncotarget, 2017).

Legend:
[1] = test system: C57BL/6 mice; assay: T, B and NK cell populations in blood, spleen and lymph nodes, FACS; assay type: in vivo, mouse
Description: S1P receptors are differentially expressed by distinct immune cell populations. Since AD2900 is an antagonist to all S1P receptors, we next evaluated its influence on the localization of different murine lymphocyte populations. To achieve this aim, we performed FACS analysis of the blood (Figure 5A), spleen (Figure 5B), and lymph node cells (Figure 5C) using antibodies against surface markers of T cells, B cells, and NK cells (TCR-β, CD19, and CD49b, respectively). […] The NK cell count was elevated by 55.7% (4.741 ± 0.8621 × 10^6 cells/ml) after a 7-day treatment with AD2900. […] The trend in the B-cell change was opposite to that in the T- and NK cell changes in the lymph nodes.
Figure 5 AD2900 treatment affects the distribution of T cells, B cells, and NK cells in blood, spleen, and peripheral lymph nodes C57BL/6 mice were orally administered with AD2900 or FTY720, as shown in Figure 4. Leukocytes from blood, spleen, and pLNs were collected and stained with TCR-β, CD19, and CD49b fluorescent antibodies and then analyzed by FACS analysis. The percentages of TCR-β+ T cells (left panel), CD19+ B cells (central panel), and CD49b+ NK cells (right panel) of the total leukocytes from blood (A), spleen (B), and pLNs (C) are shown. The results of T and B cells are from 2 days’ experiments. The results of NK cells are from 2 and 7 days’ experiments. All the significances are compared to untreated healthy mice. Results summarize three independent experiments. Results of Student’s t-test:*(P < 0.05, two-tailed test), ** (P < 0.01, two-tailed test), *** (P < 0.001, two-tailed test), **** (P < 0.0001, two-tailed test).
Murine lymphocytes: The phenotype of murine lymphocytes was analyzed by flow cytometry using anti-CD3e-FITC, anti-CD19-PB, anti-CCR7-APC, anti-CD44-FITC, anti-CD62L-APC, and anti-TCR-β-PB (Biolegend, CA, USA).
To eliminate the red blood cells, RBC lysis buffer (Beit Haemek, Israel) or BD FACS lysing solution (BD Biosciences, CA, USA) was added into murine blood and splenocyte samples. Flow cytometry was performed using the MACSQuant® Analyzer (Miltenyi Biotech, Germany), and the data were analyzed using FCS Express V3 software.
C57BL/6 female mice aged 7–8 weeks were obtained from Harlan Laboratories (Jerusalem, Israel). The animal study was conducted under appropriate conditions and was approved by the Institutional Animal Care and Use Committee of the Hebrew University of Jerusalem in accordance with the national laws and regulations for the protection of animals. AD2900 was dissolved in 10% BSA (MP Biomedicals, CA, USA) in DDW at 1 mg/ml and then further diluted in 200 ml water to get final concentrations at 1.8, 2.7, or 3.6 mg/l. AD2900 and FTY720 were supplied ad libitum to the mice for 2 days or 7 days. At the end of the experiment, blood was collected, and the mice were sacrificed and tissues (lymph nodes and spleen) were harvested.

[2] = test system: H9; assay: XTT viability assay, H9; assay type: cell-based, human; conditions: 1-day treatment, compared with Jurkat (>10 μM)
Method: Figure 1 AD2900 inhibits human lymphocyte proliferation in allogeneic activation (A, B) The levels of proliferative response of human peripheral blood lymphocytes (PBMCs) after 1-day pretreatment with different concentrations of AD2900, AD2750, YZ138, YZ158, and YZ297 (A) or AD2900, FTY720, and SEW2871 (B) were tested by human allogeneic mixed lymphocyte reaction (MLR) assay, followed by a [3H] thymidine incorporation analysis. (C) Apoptosis of AD2900-treated activated PBMCs was tested by AnnexinV-propidium iodide (PI) FACS analysis following 1-day AD2900 pretreatment and MLR. All the samples were compared to the untreated PBMC control. (D) IFN-γ secretion from activated PBMCs was tested by ELISA following a 1-day AD2900 pretreatment in MLR. On the 5th day of hMLR, supernatants were collected and assayed for the level of IFN-γ. (E) Jurkat cell viability after a 1-day treatment with different concentrations of AD2900, FTY720, and SEW2871 was tested by XTT viability assay. (F) H9, CEM/C1, and Molt4 cell viability after a 1-day treatment with different concentrations of AD2900 was tested by XTT viability assay. Graphs summarize the results of at least three independent experiments. Results of Student’s t-test: *(P < 0.05, two-tailed test), ** (P < 0.01, two-tailed test), *** (P < 0.001, two-tailed test), **** (P < 0.0001, two-tailed test). […]

## CCCCCCCCCCCCCCCCNC(CO)(CO)CO [AD2900]
[1]; 1.8 mg/l, 2-day treatment
  T cells in the blood, value in parentheses: 0.7488 ± 0.1641 × 10^6 cells/ml
  increase of average count of T cells in the blood: 81.9%
[1]; 2-day treatment
  T cells in the lymph nodes, value in parentheses: 0.7411 ± 0.2217 × 10^5 cells/ml
  T cells in the spleen, value in parentheses: 11.79 ± 3.64 × 10^6 cells/ml
  decrease of T-cell average count in the lymph nodes: 30%
  increase of average count of T cells in the spleen: 96.7%
[1]; 7-day treatment
  NK cells in the blood, value in parentheses: 0.3987 ± 0.0706 × 10^6 cells/ml
  NK cells in the lymph nodes, value in parentheses: 0.07852 ± 0.03572 × 10^5 cells/ml
  NK cells in the spleen, value in parentheses: 4.741 ± 0.8621 × 10^6 cells/ml
  decrease of NK cell count in the lymph nodes: 20.8%
  elevation of NK cell count in the spleen: 55.7%
  increase of average NK cell count in the blood: 52.1%
[1]; blood, spleen, lymph nodes
  B cell count in all the organs: not significantly influenced
[2]
  cell viability, H9: reduced cell viability could be detected even at lower concentrations
